{"source": "paper PMC9786284", "about": "“Synthesis and Antiproliferative Effect of Halogenated Coumarin Derivatives” (Molecules, 2022)", "key": {"Nthy-ori-3-1 cells": {"system": "Nthy-ori-3-1 cells", "experiment": "Cell cycle analysis by flow cytometry (PI/RNase staining)", "type": "cell-based", "details": "control cells (Nthy-ori-3-1); 20 µM, 24 h"}, "[1]": {"system": "TPC-1 thyroid cancer cell line", "experiment": "MTT cell viability assay", "type": "cell-based", "details": "Homo sapiens, TPC1; TPC-1; MTT, 24 h; concentration required to inhibit cell proliferation by 50%; mean ± SD; read-out: CC50", "method": "(§1) The cytotoxic effect of coumarins 2a–k was tested on several cancer and normal cell lines: lung cancer cell line (SK-MES-1), thyroid cancer cell lines (K-1; B-CPAP ant TPC-1), lung fibroblast (MRC-5) and thyroid normal cell line (Nthy-ori-3-1) by MTT (3-[4,5-dimethylthiazol-2-yl]-2,5 diphenyltetrazolium bromide) assay.\n(§2) The papillary thyroid carcinoma (PTC)-derived cell lines (TPC-1 and B-CPAP) were kindly provided by Dr. Fusco (Medical School, University Federico II of Naples, Naples, Italy). K-1 PTC-derived cell line and non-tumorigenic thyroid Nthy-ori-3-1 cell line were purchased from Health Protection Agency Culture Collections. The PTC-derived cell lines were maintained in DMEM/F12 (Gibco-BRL. Life Technologies, Milan, Italy)] supplemented with 10% fetal bovine serum (Gibco-BRL) at 37 °C in humidified 5% CO2. SK-MES-1 and MRC-5 were purchased from American Type Culture Collection (ATCC) and were maintained in Mem-E medium, supplemented with 10% fetal bovine serum, 100 units/mL penicillin G, and 100 μg/mL streptomycin (Gibco-BRL) at 37 °C in humidified 5% CO2.\n(§3) The effect of test compounds on the viability of cells was detected by MTT assay. The thyroid cells (7.5 × 10^3 cells/mL), SK-MES-1, and MRC-5 (8 × 10^4 cells/mL) were seeded into a 96-well plate and allowed to adhere for 16 h to culture plates before the addition of the compounds.\n(§4) Then, compounds were added at different concentrations (0.8–100 μM), and cells were further incubated for 24 h. Cells with no treatment were used as a negative control. After incubation, cells were treated with MTT solution for 3 h at 37 °C. Then, the MTT solution was removed, and 150 µL of DMSO was added to the wells. The absorbances were measured at 570 nm using a TECAN microplate reader (Infinite 200, Tecan, Salzburg, Austria). Viability data were reported as % of control (untreated cells) for each cell line."}, "[2]": {"system": "B-CPAP thyroid cancer cell line", "experiment": "MTT cell viability assay", "type": "cell-based", "details": "Homo sapiens, BCPAP; B-CPAP; MTT, 24 h; concentration required to inhibit cell proliferation by 50%; mean ± SD; read-out: CC50", "method": "as §1, §2, §3, §4"}, "[3]": {"system": "K-1 thyroid cancer cell line", "experiment": "MTT cell viability assay", "type": "cell-based", "details": "K-1; MTT, 24 h; concentration required to inhibit cell proliferation by 50%; mean ± SD; read-out: CC50", "method": "as §1, §2, §3, §4"}, "[4]": {"system": "SK-MES-1 lung cancer cell line", "experiment": "MTT cell viability assay", "type": "cell-based", "details": "Homo sapiens; SK-MES-1; MTT, 24 h; concentration required to inhibit cell proliferation by 50%; mean ± SD; read-out: CC50", "method": "as §1, §2, §3, §4"}, "MTT cell viability assay": {"experiment": "MTT cell viability assay", "type": "cell-based", "details": "human, MTT, 24 h, concentration required to inhibit cell proliferation by 50%, mean ± SD", "method": "as §1, §2, §3, §4"}, "TPC-1 cells": {"system": "TPC-1 cells", "experiment": "Annexin V-FITC/PI apoptosis assay by flow cytometry", "type": "cell-based", "details": "for total apoptotic cells: 20 μM, 24 h, untreated cells 10%; for viability at 20 µM: Homo sapiens, TPC1, 24 h, untreated cells 87%, read-out: viable cells", "method": "(§5) To determine whether the two studied coumarins 2k and 2h, induce cell death through apoptosis or necrosis, we performed double staining with fluorescent Annexin V-FITC/propidium iodide (PI) apoptosis detection kit in TPC-1 and Nthy-ori-3-1 as control cells. This assay is based on the ability of Annexin to recognize phosphatidylserine (PS), a membrane phospholipid exposed on the cell surface of apoptotic cells, while PI is able to bind the DNA of necrotic cells. Thanks to this combination, […] cell populations are obtained: cells negative for Annexin V-FITC and PI indicate live cells, Annexin V-FITC-positive/PI-negative and Annexin V-FITC-positive/PI-positive indicate early and late apoptotic cells, while cells negative for Annexin V-FITC and PI-positive are necrotic.\n(§6) To investigate cell death induced by coumarins treatment, a flow cytometric analysis using the cell apoptosis kit Annexin V/propidium iodide (PI) double staining uptake (Life Technologies, Monza, Italy) was employed. Control and PTC-derived cells, at the density of 5 × 10^4 cells/mL, were seeded in 6-well plates (Corning) with complete DMEM/F12. First, the cells were treated with 20 µM of coumarins for 24 h. Cells were washed once with PBS 1X and stained according to the kit’s protocol. Stained cells were then analyzed by flow cytometry, measuring the fluorescence emission at 530 and 620 nm using a 488 nm excitation laser (MoFloAstrios EQ, Beckman Coulter). Cell apoptosis was analyzed using Software Summit Version 6.3.1.1, Beckman Coulter."}, "[5]": {"system": "Nthy-ori-3-1 normal thyroid cells", "experiment": "Annexin V-FITC/PI apoptosis assay by flow cytometry", "type": "cell-based", "details": "20 μM, 24 h", "method": "as §5, §6"}, "[6]": {"experiment": "Cyclic voltammetry in anhydrous acetonitrile", "type": "physicochemical", "details": "100 mV s−1, Pt pseudo-reference (Fc+/0 at +0.45 V)", "method": "It has been reported that coumarins and their derivatives are able to regulate the reactive oxygen species (ROS). For example, esculetin induces cytotoxicity in pancreatic cancer cells decreasing ROS and protein levels of the ROS-dependent transcription factor NF-κB [49]. On the other end, coumarins induce the generation and accumulation of ROS in cancer cells causing cell cycle arrest and apoptotic cell death. […] Conversely, 2h produces an antiproliferative response in TPC-1 cells by scavenging ROS. In an attempt of a better understanding of the results, such compounds were explored from an electrochemical point of view by means of cyclic voltammetry in anhydrous acetonitrile.\nThe electrochemical properties of compounds 2h and 2k were investigated by cyclic voltammetry (CV) technique under an inert atmosphere. The measurements have been carried out at 100 mV s^−1 with a three-electrode cell using a platinum tip as a working electrode, a platinized titanium net as a counter electrode, and a platinum wire as a pseudo-reference electrode. The electrochemical measurements were performed at room temperature using an AUTOLAB PGSTAT302N (Metrohm, Herisau, Switzerland) potentiostat/galvanostat controlled with the NOVA software. All the solutions were prepared in anhydrous degassed acetonitrile with 0.1 M [n-Bu4N][PF6] as supporting electrolyte: in this condition, the Fc^+/0 redox couple is centered at +0.45 V."}, "[7]": {"details": "Nthy-ori-3-1 normal thyroid cells, Nthy-ori-3-1"}}}
{"compound": "N#Cc1cc2cc(I)cc(I)c2oc1=O", "note": "[2k, 6,8-diiodo-2-oxo-2H-chromene-3-carbonitrile]", "values": [{"measurement": "effect on the cell cycle", "setting": "Nthy-ori-3-1 cells", "result": "No effect on the cell cycle"}, {"measurement": "CC50", "setting": "[1]", "result": "44 ± 5.5", "unit": "µM"}, {"measurement": "CC50", "setting": "[2]", "result": "46 ± 0.2", "unit": "µM"}, {"measurement": "CC50", "setting": "[3]", "result": "57 ± 5", "unit": "µM"}, {"measurement": "CC50", "setting": "[4]", "result": "> 100", "unit": "µM"}, {"measurement": "CC50 at 24 h", "setting": "MTT cell viability assay; MRC-5 lung fibroblasts, MRC-5", "result": "> 100", "unit": "µM"}, {"measurement": "CC50 at 24 h", "setting": "MTT cell viability assay; [7]", "result": "> 100", "unit": "µM"}, {"measurement": "total apoptotic cells", "setting": "TPC-1 cells", "result": 34, "unit": "%"}, {"measurement": "viability at 20 µM", "setting": "TPC-1 cells", "result": 62, "unit": "%"}, {"measurement": "induction of apoptosis", "setting": "[5]", "result": "No significant induction of apoptosis"}, {"measurement": "oxidation peak potential", "setting": "[6]", "result": 0.75, "unit": "V"}, {"measurement": "reduction feature potential", "setting": "[6]", "result": "−0.95", "unit": "V"}]}
{"compound": "N#Cc1cc2cc(Br)cc(Br)c2oc1=O", "note": "[2h, 6,8-dibromo-2-oxo-2H-chromene-3-carbonitrile]", "values": [{"measurement": "effect on the cell cycle", "setting": "Nthy-ori-3-1 cells", "result": "No effect on the cell cycle"}, {"measurement": "CC50", "setting": "[1]", "result": "90 ± 3.5", "unit": "µM"}, {"measurement": "CC50", "setting": "[2]", "result": "> 100", "unit": "µM"}, {"measurement": "CC50", "setting": "[3]", "result": "60 ± 3", "unit": "µM"}, {"measurement": "CC50", "setting": "[4]", "result": "> 100", "unit": "µM"}, {"measurement": "CC50 at 24 h", "setting": "MTT cell viability assay; MRC-5 lung fibroblasts, MRC-5", "result": "> 100", "unit": "µM"}, {"measurement": "CC50 at 24 h", "setting": "MTT cell viability assay; [7]", "result": "> 100", "unit": "µM"}, {"measurement": "total apoptotic cells", "setting": "TPC-1 cells", "result": 18, "unit": "%"}, {"measurement": "viability at 20 µM", "setting": "TPC-1 cells", "result": 77.7, "unit": "%"}, {"measurement": "induction of apoptosis", "setting": "[5]", "result": "No significant induction of apoptosis"}, {"measurement": "oxidation peak potential", "setting": "[6]", "result": 0.6, "unit": "V"}, {"measurement": "reduction feature potential", "setting": "[6]", "result": "−1.02", "unit": "V"}]}
